Legend:
cells = conditions: Mus musculus, Hepa-1c1c7, 48 h
Description: Cytotoxicity against mouse Hepa1c1c7 cells after 48 hrs by crystal violet staining based assay

[1] = biological target: NAD(P)H dehydrogenase [quinone] 1 (Mus musculus) (UniProt Q64669)
Description: Induction of NQO1 activity in mouse Hepa1c1c7 cells after 48 hrs by MTT reduction assay

Ishikawa = assay: cells; conditions: Homo sapiens, 96 h
Description: Cytotoxicity against human Ishikawa cells after 96 hrs by SRB assay

Estrogen receptor = biological target: T1, Estrogen receptor (Homo sapiens, UniProt P03372); assay: Estrogenic activity at estrogen receptor alpha in human Ishikawa cells assessed as induction of alkaline phosphatase activity using p-Nitrophenol phosphate as substrate pretreated for 96 hrs followed by substrate addition measured every 15 secs by scanning spectrophotometric analysis; format: cell-based
T1 sequence (P03372 whole entry): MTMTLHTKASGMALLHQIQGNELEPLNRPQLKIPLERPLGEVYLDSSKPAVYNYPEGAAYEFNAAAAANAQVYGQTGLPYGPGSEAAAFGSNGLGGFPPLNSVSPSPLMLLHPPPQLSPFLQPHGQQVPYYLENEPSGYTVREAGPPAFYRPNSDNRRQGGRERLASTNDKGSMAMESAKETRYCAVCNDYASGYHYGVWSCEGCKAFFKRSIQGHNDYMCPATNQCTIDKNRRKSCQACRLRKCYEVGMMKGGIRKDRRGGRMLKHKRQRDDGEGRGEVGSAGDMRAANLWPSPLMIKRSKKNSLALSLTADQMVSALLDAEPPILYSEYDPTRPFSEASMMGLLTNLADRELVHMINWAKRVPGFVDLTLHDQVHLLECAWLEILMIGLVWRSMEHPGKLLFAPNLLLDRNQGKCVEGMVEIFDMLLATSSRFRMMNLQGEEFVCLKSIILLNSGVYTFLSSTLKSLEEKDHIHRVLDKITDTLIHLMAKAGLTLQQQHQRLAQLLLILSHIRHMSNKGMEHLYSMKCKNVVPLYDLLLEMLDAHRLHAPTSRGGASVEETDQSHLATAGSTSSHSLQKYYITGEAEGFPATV

Chain of NAD(P)H dehydrogenase [quinone] 1 (Mus musculus) (Q64669 whole entry): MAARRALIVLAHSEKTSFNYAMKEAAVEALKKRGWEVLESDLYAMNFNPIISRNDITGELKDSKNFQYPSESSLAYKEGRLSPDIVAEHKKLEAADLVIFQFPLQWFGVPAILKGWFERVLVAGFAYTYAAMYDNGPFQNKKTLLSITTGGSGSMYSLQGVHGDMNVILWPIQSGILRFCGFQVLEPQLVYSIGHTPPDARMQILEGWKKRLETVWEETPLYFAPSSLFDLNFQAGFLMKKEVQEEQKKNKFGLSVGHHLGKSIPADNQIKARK

SMILES | IC50 (cells) [µM] | CD [1] [µM] | IC50 (Ishikawa) [µM] | EC50 (Estrogen receptor; ishikawa) | EC50 (Estrogen receptor; read-out: EC50) [µM]
O=c1cc(-c2ccc(Br)cc2)oc2ccccc12 | 0.7 to 166 | – | – | – | –
CC(C)=CCc1c(O)cc(O)c2c1O[C@H](c1ccc(O)cc1)CC2=O | > 20 | > 30 | 19.1 | – | –
COc1cc(O)c(CC=C(C)C)c(O)c1C(=O)/C=C/c1ccc(O)cc1 [XANTHOHUMOL] | 17.5 | 1.3 | 4.2 | Not Active | –
CC(C)=CCc1c(O)cc2c(c1O)C(=O)CC(c1ccc(O)cc1)O2 (stereo unspecified) | > 20 | > 30 | > 5 | – | 0.4
COc1cc(O)c(CC=C(C)C)c2c1C(=O)CC(c1ccc(O)cc1)O2 (stereo unspecified) [ISOXANTHOHUMOL] | 30.7 | > 50 | 24.9 | – | 1.4

Reference: ChEMBL document CHEMBL4190325, “[…] Extracts as Tools to Balance Estrogenic and Chemopreventive Activities of Botanicals for Women's Health” (J Nat Prod, 2017)
